Assay results taken from publication PMC8179358, “An explicitly designed paratope of amyloid-β prevents neuronal apoptosis in vitro and hippocampal damage in rat brain” (Chemical Science, 2020).

Legend:
Bax, Bcl-2 = assay: Western blot, Bax and Bcl-2; type: cell-based, human; conditions: Aβ40 alone (10 μM), compared to healthy cells
Method: (§1) e. Measurement of intracellular calcium (Ca 2+)
(§2) Ca2+sensitive dye Fura-2AM was used to measure free intracellular Ca2+level in SH-SY5Y cell suspension by the previously described method.12 Following treatment with the respective drug, Fura-2 AM (Cayman, USA) at a concentration of 5 µM was added to the culture medium and incubated at 37°C for 45 min. Next, Krebs-Ringer-HEPES (KRH) buffer (135mM NaCl, 5mM KCl, 1mM MgSO4, 0.4mM KH2PO4, 1mM CaCl2, 5.5mM glucose, 20mM HEPES, pH 7.4) was used to wash each plate twice containing (1×10^6cells). Fluorescent microplate reader (FLX 800, Biotek, USA) was used to measure the fluorescence intensity with an excitation and emission spectra of […], respectively. Results are Mean±SEM of quadruplicate measurements from three separate experiments and expressed in the increase in percent relative fluorescent unit (RFU) relative to the baseline reading.
(§3) Western blot analysis was performed to measure Bax, Bcl-2, cleaved Caspase 9 and cleaved Caspase 3, pro and anti-apoptotic proteins expression. About 5× 10^6 cells were washed with PBS twice following […]
(§4) overnight. […] The optical density (OD) value of each band was analyzed by the electrophoresis image analysis system (Smartview 2001, S/N: SV-0002202, Japan) and normalized against the corresponding β-actin band. […]

cleaved caspase-3 = assay: Western blot, cleaved caspase-3; type: cell-based, human
Method: as §1, §2, §3, §4

## Aβ40: commercially available Aβ40 peptide
Bax, Bcl-2
  ratio of Bax/Bcl-2 expression: ~3.2 fold
Cleaved caspase-3
  caspase-3 activation by Aβ40 alone: leads to activation of caspase-3 directed DNA breakage, nuclear chromatin condensation, and neurocellular apoptosis
